From US20240172757A1, “METHOD OF […] A […] CROP” (priority 2021, published 2024)

Tests used:
soybean plant crop [1] = assay: Composition, yield and seed quality analysis of harvested soybeans after spraying at R6; format: in vivo
Protocol: During trial applications of the solutions described herein, composition, yield and seed quality was analyzed. It was discovered that even under challenges such as hotter than normal temperatures and drought conditions, the solutions described herein allow for manipulation of the seasons for advantageous harvesting of high quality soybeans. Soybean crop (variety “Linda,” a group 5.6 determinate soybean) was planted in 8-24 row strips following a fall corn crop. Herbicide was applied at 3 pints/acre and crop was fertilized with 20 gallons of 32-0-0 per acre, followed by irrigation as needed. Soil maps indicated two different soil types (Harlingen clay and Olmito clay) in the field that bisected the field, with the second replication having slightly less Olmito clay in the treated area. As they are both components of the other, the field was consistent to visual observation. […] The growth stage of the beans at this point is still very rapid but the dry weight and nutrient accumulation begins to slow in the whole plant by R6.5 which is just 7-10 days later in many cases. Another indicator of the R6 stage is visual signs of senescence in the older leaves of the plants.
Sprayer comprising the 2-chloroethylphosphonic acid solution was prepared and applied as described above at the following rates of Table. 1. Weather conditions at the time of spraying can be found in Table 2.
The sprayed crops were monitored daily to observe phenotypic changes which included leaf color, leaf drop, pod desiccation, and any visual between treatments. After two days post-spraying, photographs were taken to show the changes in color due to senescense taking place.
Harvest was slightly delayed (about 3 days) due to unavailability of the combine, however, even with this delay, harvested crops were sent for composition and seed quality parameters. The actual harvest during these test runs was well below a soybean moisture content of a market standard 13%.
The 0.75 pounds of the 2-chloroethylphosphonic acid solution per acre rate was highest in crude fat, crude protein, digestible energy and total digestible nutrients (TDN) while being lowest in crude fiber. […] FIGS. 1 through 4 illustrate major nutritional components affected by treatment rate, where the term “a.i.” is meant to refer to the 2-chloroethylphosphonic acid solution described above. FIG. 1 is a graph of crude protein affected by treatment rate of 2-chloroethylphosphonic acid solution according to an embodiment. FIG. 2 is a graph of crude fat affected by treatment rate of 2-chloroethylphosphonic acid solution according to an embodiment. FIG. 3 is a graph of crude fiber affected by treatment rate of 2-chloroethylphosphonic acid solution according to an embodiment. FIG. 4 is a graph of total digestible nutrients affected by treatment rate of 2-chloroethylphosphonic acid solution according to an embodiment.

soybean plant crop [2] = assay: Field test runs: acceleration of senescence/maturation and time to harvest of soybean crop after spraying at a reproductive growth stage; format: in vivo
Description: The solution of 2-chloroethylphosphonic acid may be prepared by mixing together 2-chloroethylphosphonic acid (known as ethephon in liquid form and obtainable from a number of sources) with a water solution or a liquid medium that is non-toxic to the particular legume desired. Most commercial sprayers are suitable for preparation and/or application of the solution described herein. To prepare the mixture, during test runs, a tank comprising a capacity of 600 gallons and an agitator was used. Continuous agitation of the mixture during preparation seems to provide best results.
In some embodiments, the 2-chloroethylphosphonic acid solution may comprise a water-soluble urea comprising approximately 46% nitrogen. A dry form of nitrogen may be part of the water solution or it may be part of the 2-chloroethylphosphonic acid solution with suitable mixing. Mixing is performed continuously in certain embodiments. During some test runs, approximately 4 pounds of urea per acre was added to about 10 gallons (83.4 pounds) of water per acre, followed by approximately 1.5 pounds of 2-chloroethylphosphonic acid per acre. In some embodiments, the 2-chloroethylphosphonic acid may also comprise a spreader-sticker. The spreader-sticker may be added, for example, at a rate of 2 ounces (0.125 pounds) per acre and may be silicone-based. A suitable silicone-based spreader-sticker, for example, is Kinetic by Helena. Other non-silicone-based sticker-spreaders may also be used.
Application of the 2-chloroethylphosphonic acid solution should be performed when the leguminous plant crop comprises at least 50% of the planted crops in the field at a seed growth stage. In some embodiments, the leguminous plant may be at an R5 growth stage when application of the solution described herein is performed. During R5, a fully developed seed pod may comprise, for example, a match-head sized seed in the pod. In some embodiments, the leguminous plant may be at growth stage R5.5, or between R5 and R6 for application. In some embodiments, application is performed when at least 50% of the planted leguminous plant crop is at an R6 reproductive growth stage, as described above. For example, R6 may be visually characterized or identified when at least 50% of the leguminous plant crop comprises at least one seed or “green bean” (in a top pod of the plant) comprising a width equal to its pod cavity. In some embodiments, the leguminous plant may be at growth stage R6.5, or at or between R6 and R7. During some test runs, senescence was achieved within 5 days after application of the solution described herein, with successful harvesting of quality crop. By way of example, prior to application, the physiological stage of the leguminous plant may be determined by inspecting the terminal (or last growing point at the top) end of the leguminous plant crop for a seed pod. Triggering maturation at the R5 growth stage may produce smaller seeds. For commercial production, triggering at R6 may be most successful to obtain more seed at a greater weight.
Application of the solution described herein may perform best at temperatures below 98° F. In some embodiments, application of the solution is performed at a temperature below about 90° F. Successful test runs, by way of example, described below were performed at 88° F.
During trial runs, soybean plant crops were planted on plot sizes ranging from 25-150 acres. Soybean plant crops were planted on soil used for rotational crops including, for example, grass crop, corn crop, or grain crop. Crops were seeded approximately 1-1.5 inches deep with a twin line planter. No other pretreatments were performed on the soil during test runs. Ground application was performed on raised beds using a flow jet capable of delivering a minimum of 10-20 gallons per acre. Raised beds were used during some test runs. Furrow irrigation was used to water the soybean plant crop, applying water to the top end of each furrow. […]

O=P(O)(O)CCCl [2-chloroethylphosphonic acid]
total digestible nutrients (TDN) (rank among treatments) (soybean plant crop [1]; 0.375 pounds per acre, R6): Ranked behind that in TDN
crude fat (rank among treatments) (soybean plant crop [1]; 0.75 pounds per acre, R6): highest
crude fiber (rank among treatments) (soybean plant crop [1]; 0.75 pounds per acre, R6): lowest
crude protein (rank among treatments) (soybean plant crop [1]; 0.75 pounds per acre, R6): highest
digestible energy (rank among treatments) (soybean plant crop [1]; 0.75 pounds per acre, R6): highest
total digestible nutrients (TDN) (rank among treatments) (soybean plant crop [1]; 0.75 pounds per acre, R6): highest
overall nutrients versus untreated (soybean plant crop [1]; all three treatments (0.375, 0.75, 1.125 pounds per acre)): improved overall nutrients
acceleration of maturation in soybean plants (soybean plant crop [2]; about 0.375 pounds per acre at the R-6 stage): significant acceleration of maturation
accelerated maturation of a soybean plant (soybean plant crop [2]; about 0.75 pounds per acre at the R-6 reproductive growth stage): Accelerated maturation
harvesting stage reached sooner than without spraying (soybean plant crop [2]; following application at a reproductive growth stage): 10 to 14 days
maturation achieved faster than when not treated (soybean plant crop [2]; in some cases, high temperature and high humidity environments): up to 40 days
days shaved off waiting times (soybean plant crop [2]; in some cases, versus typical minimum 39-day period): about 30 days
time to senescence after application (soybean plant crop [2]; some test runs): ≤ 5 days
germination rate (soybean plant crop [2]; trial runs, 25-150 acre plots): ≥ 90%
